Key:
[1] = tested on: mouse; test: Marble burying test; type: in vivo; details: −30 min
Protocol: The method applied here follows that described by Broekkamp et al. (1986). Mice (n=15 per treatment group) were individually placed in transparent plastic cages (33×21×18 cm) with 5 cm of sawdust on the floor and 25 marbles (diameter 1 cm) grouped in the centre of the cage. A second, up-turned, cage served as a lid. The number of marbles covered by sawdust (by at least two-thirds) was counted at the end of the 30-min test period. Tests were performed by investigators blind to the drug treatment protocol.
Prior to testing, all test cages and marbles were “impregnated” by leaving 10 naive mice in each cage for 15 minutes.
Carnosol (3, 10 and 30 mg/kg) and rosmanol (10, 30 and 100 mg/kg) were administered i.p. 30 min before the test, and compared with a vehicle control group. Fluoxetine (32 mg/kg), administered under the same experimental conditions, was used as a reference substance.

[2] = tested on: synaptic markers pCREB, pMAPK, GluR1 in hippocampal slice cultures; test: Activation of synaptic (LTP) markers in hippocampal slice cultures; type: cell-based, Wistar rats; details: hippocampal slices, 15 min treatment; for GluR1, percentage of control values: cell surface AMPA receptor 1; for pCREB, relative activation / pMAPK, relative activation: vs buffer-treated sister cultures
Protocol: Seven-day-old Wistar rats were decapitated using a guillotine. In less than 1 minute the skull was opened, the cerebral hemispheres were separated and transferred and both hippocampi were dissected and transferred into ice-cold buffer containing 137 mM NaCl, 5 mM KCl, 0.85 mM Na2HPO4, 1.5 mM CaCl2, 0.66 mM KH2PO4, 0.28 mM MgSO4, 1 mM MgCl2, 2.7 mM NaHCO3, 1 mM Kynurenic acid and 0.6% D-glucose.
Transverse hippocampal slices (400 μm) were prepared using a vibrating blade microtome (VT1200S; Leica Microsystems (Schweiz) AG, Heerbrugg, Switzerland) in the same buffer. Hippocampal slices were individually placed on membrane inserts (Millicell Culture Plate Inserts, 0.4 μm) and cultivated at 35° C., 5% CO2, 95% humidity in a medium containing a 1:1 mixture of BME and MEM (both from Invitrogen) containing 25% heat-inactivated horse serum, 1× GlutaMAX, 1× Penicillin/Streptomycin, 0.6% glucose and 1 mM Kynurenic acid (Stoppini, Buchs and Muller (1991), J. Neurosci. Methods, 37(2), 173-82).
After 48 h in culture, synaptic NMDA receptors were activated by addition of carnosol or rosmanol for 15 min in 140 mM NaCl, 5 mM KCl, 1.3 mM CaCl2, 25 mM HEPES (pH 7.3), 33 mM D-glucose and 0.02 mM bicuculline methiodide. […] An additional positive control comprised the addition of 200 μM glycine to sister cultures. After the treatments, sections were washed and fixed for immunohistochemistry. Markers of enhanced synaptic activity, normally associated with long-term potentiation, representing an ex vivo model of learning and memory were quantitated (see Table 6, below).
Treatment of hippocampal cultures with carnosol and rosmanol induced one or more biochemical markers typical for LTP (pCREB: activated form of the cAMP response element binding protein; pMAPK: activated form of the mitogen-activated protein kinase; GluR1: cell surface presence of AMPA receptor 1).

[3] = target: T1, monoamine oxidase B (MAO-B) (Homo sapiens, UniProt P27338); test: Monoamine oxidase B inhibition (benzylamine substrate, HRP/vanillic acid readout); type: biochemical; details: mean ± s.e.m., n = 2
T1 sequence (P27338 1-520): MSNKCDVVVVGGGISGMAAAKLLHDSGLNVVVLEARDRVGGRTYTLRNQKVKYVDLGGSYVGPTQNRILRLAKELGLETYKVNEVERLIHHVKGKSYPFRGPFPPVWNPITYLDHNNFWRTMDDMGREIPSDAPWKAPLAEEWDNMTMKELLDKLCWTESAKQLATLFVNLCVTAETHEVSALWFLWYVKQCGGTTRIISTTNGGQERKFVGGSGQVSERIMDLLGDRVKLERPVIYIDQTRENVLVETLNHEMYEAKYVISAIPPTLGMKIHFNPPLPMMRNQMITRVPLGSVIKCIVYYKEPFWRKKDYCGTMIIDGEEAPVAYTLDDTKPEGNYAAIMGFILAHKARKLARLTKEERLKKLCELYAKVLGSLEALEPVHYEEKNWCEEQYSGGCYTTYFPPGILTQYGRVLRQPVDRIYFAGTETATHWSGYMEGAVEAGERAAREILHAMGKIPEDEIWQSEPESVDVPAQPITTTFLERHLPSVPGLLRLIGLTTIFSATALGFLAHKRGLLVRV
Protocol: The organic amines p-tyramine or benzylamine were used as substrates for the monoamine oxidase A (MAO-A) and B (MAO-B) enzymes respectively. The H2O2 produced by this reaction was quantified by reaction with vanillic acid, catalysed by horse radish peroxidase (HRP).
The reactions were carried out at 37° C. in polystyrene microtitre plates. The MAO enzymes (final concentration 2 U/ml) were mixed with either p-tyramine (Sigma, final concentration 0.5 mM) or benzylamine (Sigma, final concentration 0.5 mM) as appropriate and the chromogenic solution (containing vanillic acid (Fluka), 4-aminoantipyrine (Fluka) and horse radish peroxidase (Sigma), final concentrations 0.25 mM, 0.125 mM and 1 U/ml, respectively) in 0.2 M potassium phosphate buffer, pH 7.6. After 40 min incubation, plates were analysed in a microtitre plate absorbance reader, e.g. Spectramax M5 (Molecular Devices Corporation), at 495 nm.
The effects of carnosol and rosmanol on the monoamine oxidase enzymes were determined by their inclusion in the assay at a range of concentrations between 0.03 and 100 μM for 10 minutes prior to and during the incubation with substrate. To determine the effect of the compounds on the HRP-catalysed portion of the reaction, the MAO enzyme was replaced by H2O2 (Molecular Probes, final concentration 50 μM). […]

CC(C)c1cc2c(c(O)c1O)[C@@]13CCCC(C)(C)[C@@H]1C[C@@H]2OC3=O [Carnosol, carnosol]
Number of marbles buried (% change from control) ([1]; 3 mg/kg i.p.): −12%
Number of marbles buried (% change from control) ([1]; 10 mg/kg i.p.): −10%
Number of marbles buried (% change from control) ([1]; 30 mg/kg i.p.): −41%
GluR1, percentage of control values [2]: 608%
pCREB, relative activation [2]: ±
pMAPK, relative activation [2]: ++
IC50 [3]: 107 ± 19.9 µM

CC(C)c1cc2c(c(O)c1O)[C@@]13CCCC(C)(C)[C@@H]1[C@H](OC3=O)[C@H]2O [Rosmanol, rosmanol]
Number of marbles buried (% change from control) ([1]; 10 mg/kg i.p.): −21%
Number of marbles buried (% change from control) ([1]; 30 mg/kg i.p.): −12%
Number of marbles buried (% change from control) ([1]; 100 mg/kg i.p.): −55%
GluR1, percentage of control values [2]: 320%
pCREB, relative activation [2]: ±
pMAPK, relative activation [2]: +
IC50 [3]: 73.3 ± 11.3 µM

From patent US8227508B2, “Dietary and pharmaceutical compositions containing carnosol and/or rosmanol and their uses” (DSM IP Assets B.V., priority 2006, dated 2012)
